Read-outs that look alike come from different tables or passages of the source.
Columns and labels:
[1] = system: normal human skin fibroblasts
Method: Dermal fibroblasts were obtained as outgrowths from explanted dermal tissue, after incubation at 37° C. 5% CO2 97% humidity) in DMEM containing 10% FBS. The cells were harvested with 0.05% trypsin, 0.02% EDTA, and passaged in their respective media or used for construction of dermal and skin equivalents. For experimental treatments the cells were plated into 25 cm tissue culture flasks (T-25), 6 well tissue culture (TC) plates (9.6 cm^2/well), or 4 well TC plates (2 cm^2/well).
(§2) The cells, DEs, or tissue equivalent products, contained in TC plates, were transferred into the treatment chamber, the lids were removed, and the TC plates covered with sterile gauze. […] The treatment pressure was maintained for 90 minutes. At the conclusion, decompression was carried out slowly over a five-minute period, and the treated cultures returned to the CO2 incubator. The treatments were repeated for 2, 5, or 10 consecutive days, and a normal medium change schedule was maintained.
(§3) The cells and equivalents were incubated in 1 ml of neutral red solution (1 mg/ml in appropriate media) for 4 hours at 37° C. The effects on the cells (fibroblasts/keratinocytes) were evaluated microscopically and photographically recorded. The entry of neutral red into the cells signified that they were viable.

[2] = system: Fibroblasts in Dermal Eq. Submerged; details: 90 min/day for 10 days
Method: (§4) Dermal equivalents were constructed at 4° C. by mixing 8 parts collagen (Type I acid solubilized, ICN Cellagen®; 3 mg/ml), 1 part of 10×Ham's F-12 medium, 1 part buffer (200 mM HEPES, 25 mM Na2CO3 and 50 mMN NaOH) and inoculating with dermal fibroblasts (1×10^5 cells/ml at 4° C.). For experimental treatments DE were cast in 4 or 12 well tissue culture plates and were maintained at 37° C. in Ham's F-12 Medium containing 5% FBS. Fibroblasts regained their normal morphology within 48 hours, after which DE were maintained in modified Ham's F-12 Medium, changing the media every 48 hours.
as §2, §3

[3] = 90 minutes, DMEM, KBM
Method: A method similar to that described by Rafi et al., Am. J. Med. Genetics 61:299-303 […] was used to measure the partial pressure of oxygen (pO2) dissolved in the culture medium bathing the cells. To each well of a multiwell tissue culture (TC) plate was added the appropriate culture medium to a depth of 2 mm. The TC plates were then placed in the treatment chamber, the chamber was flushed out with oxygen for five minutes and then pressurized over an additional five minute period. The pressure was maintained for 90 minutes after which time period the treatment chamber was decompressed over a period of five minutes. The TC plates were then removed from the chamber and the pO2 measurement taken within two minutes using a polarographic oxygen electrode (Diamond General Development Corporation, Ann Arbor, Mich.). Dissolution of oxygen at four different pressures was measured in three different media.

HUSE Product = details: for OUTCOME (neutral red viability): HUSE Product, 90 min/day for 10 days
Method: Dermal equivalents, cast in 12 well tissue culture plates, were coated with collagen VII (Collaborative Research; 12 mg collagen/cm^2). Early passage keratinocytes (1.8×10^5cells/cm^2), suspended in KGM (2 mls) were then plated onto DE. The medium was changed after 24 hours, and thereafter at 48 hour intervals. Once a confluent monolayer was formed, the DE were transferred to a wire mesh grids, elevated to the air-liquid interface, and the media was changed to modified KGM containing 1.8 mM CaCl2; once lifted (“lift date” was “Day 0”) the system was considered to be a “developing HUSE product”. The “epidermis” remained at the air-liquid interface and differentiated for the duration of the experiment, the media being changed every 3 days. The HUSE product was considered mature after 14 days of differentiation.
as §2, §3

[4] = system: Fibroblasts in Dermal Eq. on Grids; details: 90 min/day for 10 days
Method: as §4, §2, §3

[5] = system: normal human dermal fibroblasts monolayers; details: for cell proliferation (cell numbers): 90 min./day for ten days
Method: (§1) The cells, DEs, or tissue equivalent products, contained in TC plates, were transferred into the treatment chamber, the lids were removed, and the TC plates covered with sterile gauze. The treatment chamber was sealed, the oxygen (100%) was blown through slowly to expel all the air (2 min.), and the chamber brought up to the appropriate pressure over a period of five minutes. The treatment pressure was maintained for 90 minutes. At the conclusion, decompression was carried out slowly over a five-minute period, and the treated cultures returned to the CO2 incubator. The treatments were repeated for 2, 5, or 10 consecutive days, and a normal medium change schedule was maintained.

[6] = system: human skin equivalent product; details: 90 minutes/day for 10 days
Method: as §1

[7] = system: normal human keratinocyte monolayers; details: periodic HBO treatment
Method: as §1

[8] = system: normal human dermal fibroblasts
Method: Collagen production by near confluent monolayer of dermal fibroblasts was determined by measuring the incorporation of tritiated proline [3H-proline] into bacterial collagenase-sensitive protein [Postlethwaite et al., Proc. Nat. Acad. Sci. (USA) 75:871-875 (1978)] using an extensively modified method of Peterkofsky and Diegelmann, Developmental Biology 28:443-453 (1972). The wells of a six well TC plate (Falcon 3008) were seeded with 5×10^5 fibroblasts and were cultured in DMEM containing 5% FBS for 72 hr at 37° C. (humidified 5% CO2 incubator). The medium was then replaced with serum free DMEM lacking in nonessential amino acids (500 ml), and containing 5 μC L-proline[2,3-3H] (20 Ci/mM, NEN, Boston, Mass.), and the hyperbaric treatments initiated. After 48 and 120 hours, two aliquots (200 ml) of culture supernatant were removed from each well. One aliquot was used to quantitate total protein production as follows: supernatant (200 ml) was added to 0.2 M Tris/0.3 M CaCl2 buffer (pH 7.5, 70 ml), FBS (25 ml),N-ethylmaleimide (NEM, 30 ml), and a 0.75% solution of tannic acid (TA) in 50% trichloroacetic acid 9TCA) (75 ml). […] The filters, placed in scintillation vials containing 5 ml Aquasol (New England Nuclear), were chilled for 4 hr, and counted in a liquid scintillation counter.
The second aliquot of was used to quantitate the noncollagen protein as follows: supernatant (200 ml) was added to 0.2 M Tris/0.3 M CaCl2 buffer (pH 7.5, 50 ml), NEM (30 ml) and bacterial collagenase (20 ml) (Worthington Biochemical Corp., Freehold, N.J.), purified just before use by gel filtration on Sephadex G-200 to remove proteinases. […] The precipitate was collected on glass fiber filters, and the radioactivity was measured by scintillation counting.
De novo synthesized collagen by each fibroblast culture was determined by substracting the noncollagen protein from the total proteins synthesized. Samples were assaved in quadruplicate or triplicate and the data are expressed as mean epm (+SEM) and/or percent of collagen produced relative to control cultures. […]

[9] = system: normal human keratinocytes; details: for OUTCOME (neutral red viability): Keratinocytes, Continuous 12 hrs or 90 min/day for 10 days
Method: Human skin pieces (5 cm squares) were incubated at 4° C. in a solution of 20U/ml dispase (Collaborative Research; 5 mg collagen/cm2) in KGM (Keratinocyte Growth Medium, Clonetics Corp.), for 48 hours. The epidermis was separated from the dermis and dispersed in a solution containing 0.025% trypsin and 0.02% EDTA, by incubation at 37° C. and vigorous pipetting, to produce a single cell suspension. The resulting keratinocytes were then plated into tissue culture flasks coated with collagen VII, and cultured in KGM, a serum free defined medium at 37° C. (5% CO2, 97% humidity). […] The cells were harvested with 0.05% trypsin, 0.02% EDTA, and passaged in their respective media or used for construction of dermal and skin equivalents. For experimental treatments the cells were plated into 25 cm tissue culture flasks (T-25), 6 well tissue culture (TC) plates (9.6 cm^2/well), or 4 well TC plates (2 cm^2/well).
as §2, §3

O=O [100% O2, oxygen]
OUTCOME (neutral red viability) ([1]; 3 hrs/day for 5 days, 320 mm Hg): Non-Toxic
OUTCOME (neutral red viability) ([1]; 3 hrs/day for 5 days, 480 mm Hg): Non-Toxic
OUTCOME (neutral red viability) ([1]; 3 hrs/day for 5 days, 760 mm Hg): Non-Toxic
OUTCOME (neutral red viability) ([1]; Continuous 12 hrs, 760 mm Hg): Non-Toxic
OUTCOME (neutral red viability) ([1]; Continuous 12 hrs, 1520 mm Hg): Some Toxicity
OUTCOME (neutral red viability) ([1]; Continuous 12 hrs, 1520 mm Hg, listed as 100% oxygen): some toxicity
OUTCOME (neutral red viability) ([1]; Continuous 12 hrs, 2280 mm Hg): Some Toxicity
OUTCOME (neutral red viability) ([1]; Continuous 12 hrs, 2280 mm Hg, listed as 100% oxygen): some toxicity
OUTCOME (neutral red viability) ([2]; 760 mm Hg): Non-Toxic
OUTCOME (neutral red viability) ([2]; 1520 mm Hg): Non-Toxic
OUTCOME (neutral red viability) ([2]; 2280 mm Hg): Non-Toxic
MEASURED pO2 (Mean of three readings) ([3]; applied O2 pressure 1 atm. - 760 mm Hg, KGM): 316 mm Hg
MEASURED pO2 (Mean of three readings) ([3]; applied O2 pressure 2 atm. - 1520 mm Hg, KGM): 800 mm Hg
MEASURED pO2 (Mean of three readings) ([3]; applied O2 pressure 2.5 atm. - 1900 mm Hg, KGH): 941 mm Hg
MEASURED pO2 (Mean of three readings) ([3]; applied O2 pressure 3 atm. - 2280 mm Hg, KGM): 1215 mm Hg
OUTCOME (neutral red viability) (HUSE Product; 760 mm Hg): Non-Toxic
OUTCOME (neutral red viability) (HUSE Product; 1520 mm Hg): Non-Toxic
OUTCOME (neutral red viability) (HUSE Product; 2280 mm Hg): Non-Toxic
adverse effect on developing HUSE products (HUSE Product; up to 3 atmospheres): not adversely affected
OUTCOME (neutral red viability) ([4]; 760 mm Hg): Non-Toxic
OUTCOME (neutral red viability) ([4]; 1520 mm Hg): Some Toxicity
OUTCOME (neutral red viability) ([4]; 2280 mm Hg): Some Toxicity
cell proliferation (cell numbers) ([5]; 1 atm. Donor): Stimulation of cell proliferation
cell proliferation (cell numbers) ([5]; 2.5 atm. Donor): Stimulation of cell proliferation
cell proliferation (cell numbers) ([5]; 3 atm, donor): consistently non-stimulating and perhaps marginally anti-mitotic
effect on fibroblast mitosis ([5]; oxygen pressures above about three atmospheres): antimitotic
cornification of the epidermal layer [6]: particularly stimulated
epidermal thickness ([6]; 1 and 2 atm of 100% oxygen, vs untreated control): progressive increase in epidermal thickness
cell number ([7]; 1 atm.): consistently indistinguishable from the controls
cell number ([7]; 2 atm.): not as mitotic as the latter
cell number ([7]; 2.5 atm.): not as mitotic as the latter
cell number ([7]; 3 atm.): a constant number of cells, well below the numbers obtained in other treatments
collagen synthesis ([8]; 1 atmosphere, after two days of treatment): elevated
levels of collagen synthesis ([8]; five days vs two days of treatment, all pressure levels): higher after five days of treatment than after two days
collagen synthesis ([8]; with increased HBO): inhibition of collagen synthesis
OUTCOME (neutral red viability) ([9]; 760 mm Hg): Non-Toxic
OUTCOME (neutral red viability) ([9]; 1520 mm Hg): Non-Toxic
OUTCOME (neutral red viability) ([9]; 2280 mm Hg): Non-Toxic
toxicity ([9]; keratinocyte monolayer cultures, any pressure): No toxicity

From patent publication US6471958B2, “Non-contracting tissue equivalent” (University of North Texas Health Science Center, priority 1998, dated 2002)
